Reference: patent publication US20190224213A1, “VAGINAL COMPOSITION COMPRISING A COMBINATION OF ESTROGEN AND VITAMIN D” (CHEMO RESEARCH S.L., priority 2016, published 2019)

How the values were obtained:
[1] = Body weight evolution in ovariectomized rats during 6-week local treatment; format: in vivo, rat; settings: 6-week treatment, irrespective of the dose
Source text: (§1) 8-10 weeks-old female Sprague Dawley rats (Janvier, France) are first acclimated during a period of time of one week or more.
(§2) The acclimated rats undergo a bilateral ovariectomy (at “Day 0”), so as to induce an experimental menopause.
(§3) Three weeks after ovariectomy (at Day 21), the ovariectomized rats are divided in five distinct groups of at least eight animals per group, respectively: • Group 1: the ovariectomized rats receive no treatment at all • Group 2: the ovariectomized rats are administered once daily with an ovule comprising a liquid saline (placebo) • Group 3: the ovariectomized rats are administered once daily with an ovule comprising estradiol alone, in the absence of vitamin D analog • Group 4: the ovariectomized rats are administered once daily with an ovule comprising vitamin D analog alone, in the absence of estradiol. • Group 5: the ovariectomized rats are administered once daily with an ovule comprising (i) the combination of estradiol and vitamin D analog.
(§4) Each of the Groups 1, 2, 3, 4 and 5 of ovariectomized rats receives the indicated treatment during a period of time of six weeks (thus until Day 63).
The body weight of each tested animal is monitored twice a week.

vaginal epithelium [2] = test: Vaginal epithelium thickness evaluation in ovariectomized rats; format: in vivo, rat; settings: 6-week treatment
Source text: as §1, §2, §3, §4
One part of the vagina tissue material is paraffin-embedded. Slices of the paraffin-embedded vaginal tissue are stained for studying and measuring the vaginal epithelium thickness as well as the vaginal epithelium morphology. […]

vaginal epithelium [3] = test: Vaginal Maturation Index: percentage of cornified cells in vaginal smears of ovariectomized rats; format: in vivo, rat; settings: calcitriol, irrespectively of the doses tested
Procedure: as §3, §4
(§5) Smears of vaginal tissue are collected from each of the tested animal by gentle scraping along the wall of the vagina the day before the first treatment and the day following the last treatment for determining the Vaginal Maturation Index (VMI).
(§6) For each rat, 2 samples are taken by gentle scraping along the wall of the vagina. […]
(§7) VMI is assessed as a ratio obtained through performing a random count of 3 major cell types. […]

vaginal epithelium [4] = test: Vaginal Maturation Index: percentage of leukocytes in vaginal smears of ovariectomized rats; format: in vivo, rat; settings: calcitriol alone at 0.006 μg
Procedure: as §3, §4, §5, §6, §7

[5] = Calcium plasma level in ovariectomized rats; format: in vivo, rat
Procedure: as §3, §4

vaginal epithelium [6] = settings: oral 0.500 mcg calcitriol/day, at least one year, vs non-supplemented postmenopausal women; cited from earlier work
vaginal epithelium [7] = test: Histology of the vaginal tissue cornified cell layer in ovariectomized rats (FIG. 3); format: in vivo, rat
Procedure: as §3, §4
One part of the vagina tissue material is paraffin-embedded. Slices of the paraffin-embedded vaginal tissue are stained for studying and measuring the vaginal epithelium thickness as well as the vaginal epithelium morphology.
Vaginal tissue is then separated into two parts: • one half is fixed in 10% neutral buffered formalin and paraffin-embedded for epithelium thickness evaluation and morphology (H&E coloration) • the second half will be immediately frozen and stored at −80° C. for further evaluation.
Vaginal tissue is embedded in paraffin, sectioned and stained with hematoxylin/eosine (2 slides/rat) using a fully automated multi-stainer system for histological analysis, the Multistainer ST5020 in conjunction with the CV5030 Coverslipper marketed by the Company Leica Biosystems (Germany).

[8] = test system: vaginal maturation index and urogenital symptoms; settings: oral raloxifene 60 mg/day with 400 IU vitamin D and 600 mg calcium, 3 months, vs risedronate-based regimen; cited from earlier work
vaginal atrophy = settings: vaginal suppository 1000 IU, daily for 8 weeks, 44 postmenopausal women; cited from earlier work

Molecule: C=C1/C(=C\C=C2/CCC[C@]3(C)[C@@H]([C@H](C)CCCC(C)(C)O)CC[C@@H]23)C[C@@H](O)C[C@@H]1O [Calcitriol, 1α,25-dihydroxyvitamin D3]
- body weight evolution [1]: did not cause any change
- vaginal epithelium thickness as compared to placebo (vaginal epithelium [2]; calcitriol alone, irrespective of the dose tested): did not cause any change
- content of the vaginal epithelium cornified cells (vaginal epithelium [3]): no significant change
- vaginal epithelium content in leukocytes (vaginal epithelium [4]): no effect
- calcium plasma level: significance versus placebo ([5]; Calcitriol 0.08 μg): **** (“****” means p<0.001 versus placebo)
- calcium plasma level: significance versus placebo ([5]; Calcitriol 0.1 μg): **** (“****” means p<0.001 versus placebo)
- calcium plasma level ([5]; calcitriol dose 0.006 μg): did not cause any significant change
- calcium plasma level ([5]; dose of 0.08 μg): significantly increased
- calcium plasma level ([5]; dose of 0.1 μg): significantly increased
- squamous maturation of the vaginal epithelium (vaginal epithelium [6]): resulted in squamous maturation

Molecule: C[C@]12CC[C@@H]3c4ccc(O)cc4CC[C@H]3[C@@H]1CC[C@@H]2O [Estradiol, (17beta)-estra-1,3,5(10)-triene-3,17-diol]
- body weight evolution [1]: did not cause any change
- vaginal epithelium thickness as compared to placebo (vaginal epithelium [2]; 0.4 μg dose of estradiol): high increase
- cornified cell layer in histological photograph (vaginal epithelium [7]; 0.02 μg dose of estradiol (FIG. 3B)): does not cause a detectable change
- cornified cell layer in histological photograph (vaginal epithelium [7]; 0.08 μg estradiol (FIG. 3C)): thickness and a density which increase with the increasing doses
- cornified cell layer in histological photograph (vaginal epithelium [7]; 0.4 μg estradiol (FIG. 3D)): thickness and a density which increase with the increasing doses

Molecule: O=C(c1ccc(OCCN2CCCCC2)cc1)c1c(-c2ccc(O)cc2)sc2cc(O)ccc12 [raloxifene]
- vaginal maturation index [8]: improvement
- vaginal pH [8]: improvement

Molecule: vitamin D
- superficial cells in the vaginal epithelium (vaginal atrophy): significant increase
- vaginal pH (vaginal atrophy): significant decrease
